Values of other authors, collected in patent US20240358747A1, “SOME GEL FORMULATIONS THAT PROVIDE WOUND HEALING AND THE SYNTHESIS OF DYSPROSIUM ERBIUM BORATE TRIHYDRATE (Dy0.5Er0.5BO3.3H2O) COMPOUND USED IN THESE FORMULATIONS” (VERTRATECH KIMYA SANAYI VE TICARET LIMITED SIRKETI, priority 2021, published 2024).

Conditions: topical application of 3% boric acid to wounds

## OB(O)O [boric acid]
  length of stay in intensive care units: reduces the length of stay in intensive care units three times
